Assay results: BindingDB's records for doi:10.7270/Q20863PV (University of Pittsburgh, 2006)

biological target: T1, Dual specificity protein phosphatase 1 (Homo sapiens, UniProt P28562); assay: MKP-1 phosphatase inhibition under DTT, dose response, biochemical, DTT added, probe assessment (AID 558)
T1 sequence (P28562 whole entry): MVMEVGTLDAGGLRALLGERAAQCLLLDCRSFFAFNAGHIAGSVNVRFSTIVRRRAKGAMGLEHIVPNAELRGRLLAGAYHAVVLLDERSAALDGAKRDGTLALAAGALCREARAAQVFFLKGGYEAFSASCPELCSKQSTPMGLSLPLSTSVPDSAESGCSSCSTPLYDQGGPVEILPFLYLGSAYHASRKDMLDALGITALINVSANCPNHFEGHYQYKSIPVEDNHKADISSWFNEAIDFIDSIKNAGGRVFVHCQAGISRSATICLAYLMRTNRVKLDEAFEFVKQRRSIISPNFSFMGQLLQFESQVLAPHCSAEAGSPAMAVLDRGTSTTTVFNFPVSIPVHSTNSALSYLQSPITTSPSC

| SMILES | IC50 |
| --- | --- |
| CCCCCNC(=O)c1ccc2c(=O)[nH]c3c(C(=O)NCC4CCCO4)sc(=S)n3c2c1 (configuration not stated) [5-oxo-N3-(2-oxolanylmethyl)-N8-pentyl-1-sulfanylidene-4H-thiazolo[3,4-a]quinazoline-3,8-dicarboxamide] | 36.7 µM |
| O=C(NC1(O)C(=O)c2ccccc2C1=O)c1ccccc1 [N-(2-hydroxy-1,3-dioxo-2-indenyl)benzamide] | > 50 µM |
| CCCCn1c(NC(=O)c2ccccc2)c(C#N)c2nc3ccccc3nc21 [SMR000060333] | 32.4 µM |
| Cc1cccc(N2CCN(C(=O)Cc3c(C(=O)O)[nH]c4ccc(Cl)cc34)CC2)c1C [5-chloranyl-3-[2-[4-(2,3-dimethylphenyl)piperazin-1-yl]-2-oxidanylidene-ethyl]-1H-indole-2-carboxylic acid] | 46.8 µM |
| O=C(Nc1ccc2nc(-c3ccco3)c(-c3ccco3)nc2c1)N1CCCCCC1 | 24.1 µM |
| CCOC(=O)c1ccc2c(c1)C1C=CCC1C(C(=O)O)N2 (configuration not stated) [MLS-0025126.0001] | 32.7 µM |
| FC(F)(F)c1ccc(N2CCOCC2)c(Nc2nc3ccccc3n3cnnc23)c1 [MLS000093276] | > 50 µM |
| CCCCn1c(SCC(=O)c2ccc(OC)cc2OC)nc2cc(S(N)(=O)=O)ccc21 [1-butyl-2-[2-(2,4-dimethoxyphenyl)-2-oxidanylidene-ethyl]sulfanyl-benzimidazole-5-sulfonamide] | 42.1 µM |
| COc1ccc(-n2c(NC(=O)c3ccco3)c(C#N)c3nc4ccccc4nc32)cc1 [MLS000079925] | > 50 µM |
| Cc1cccc(NC(=O)c2cc(NC(=O)C3CCCCC3C(=O)O)ccc2N2CCCCC2)c1 (configuration not stated) [2-({[3-{[(3-methylphenyl)amino]carbonyl}-4-(1-piperidinyl)phenyl]amino}carbonyl)cyclohexanecarboxylic acid] | > 50 µM |
| Cc1cc(NC(=O)c2ccc(S(=O)(=O)N3CCCC3)cc2)nc2c1c(=O)oc1ccccc12 [MLS000091355] | 26.1 µM |
| CCn1c(SCC(=O)Nc2ccc3c(c2)c2ccccc2n3CC)nnc1-c1ccco1 [MLS000050867] | 21.1 µM |
| CC(C)Cn1c(N)c(C(=O)COC(=O)c2cc(-c3ccco3)nc3ccccc23)c(=O)n(C)c1=O [2-(2-furanyl)-4-quinolinecarboxylic acid [2-[4-amino-1-methyl-3-(2-methylpropyl)-2,6-dioxo-5-pyrimidinyl]-2-oxoethyl] ester] | 25.5 µM |
| COc1ccc(Br)cc1C=c1sc2nc(-c3ccco3)nn2c1=O [5-[(5-bromanyl-2-methoxy-phenyl)methylidene]-2-(furan-2-yl)-[1,3]thiazolo[3,2-b][1,2,4]triazol-6-one] | 17.2 µM |
| CC(C)Sc1nc2sc3c(c2c2nnc(SCC(=O)NCc4ccco4)n12)CCCC3 [MLS000082957] | 22.7 µM |
| COCCCn1c(N)c(C(=O)NCCC(C)C)c2nc3ccccc3nc21 [MLS000041744] | > 50 µM |
| CCc1ccc(NC(=O)CSc2nc3ccccc3c(=O)n2CCN2CCOCC2)cc1 [MLS000095236] | > 50 µM |
| CC(C)(C)N1C(=O)Cc2c1nc(N)c1c(N)nc(N3CCCCC3CO)c(C#N)c21 (configuration not stated) [5,6-bis(azanyl)-3-tert-butyl-8-[2-(hydroxymethyl)piperidin-1-yl]-2-oxidanylidene-1H-pyrrolo[2,3-c][2,7]naphthyridine-9-carbonitrile] | > 50 µM |
| CCOc1ccc(-c2cc3nc(C4CCN(C(=O)OC(C)(C)C)CC4)c(C(=O)O)cn3n2)cc1 [2-(4-ethoxyphenyl)-5-[1-[(2-methylpropan-2-yl)oxy-oxomethyl]-4-piperidinyl]-6-pyrazolo[1,5-a]pyrimidinecarboxylic acid] | 27.7 µM |

| SMILES | IC50 |
| --- | --- |
| Cc1nc2c(C(=O)NCCC3=CCCCC3)c[nH]n2c(=O)c1Cl [6-chloro-N-(2-cyclohex-1-en-1-ylethyl)-7-hydroxy-5-methylpyrazolo[1,5-a]pyrimidine-3-carboxamide] | 49.9 µM |
| Cc1ccc(-c2csc(NC(=O)c3ccno3)n2)cc1 [MLS000081820] | 49.8 µM |
| [O-]/[N+](=C\c1ccc(OC(F)F)cc1)c1ccccc1 [1-[4-(difluoromethoxy)phenyl]-N-phenylmethanimine oxide] | > 50 µM |
| O=C(Nc1ccccc1)c1ccc2nc(-c3ccco3)c(-c3ccco3)nc2c1 [2,3-di-2-furyl-N-phenyl-6-quinoxalinecarboxamide] | 32 µM |
| Nc1c(N2CCCC2)cc(Cl)c2nonc12 [(7-chloro-5-pyrrolidino-benzofurazan-4-yl)amine] | > 50 µM |
| COc1ccc(-c2cc3nc(C4CCN(C(=O)OC(C)(C)C)CC4)c(C(=O)O)cn3n2)cc1 [2-(4-methoxyphenyl)-5-[1-[(2-methylpropan-2-yl)oxy-oxomethyl]-4-piperidinyl]-6-pyrazolo[1,5-a]pyrimidinecarboxylic acid] | 36.3 µM |
| CCCCNC(=O)c1c(N)n(CCCOC)c2nc3ccccc3nc12 [2-amino-N-butyl-1-(3-methoxypropyl)-3-pyrrolo[3,2-b]quinoxalinecarboxamide] | > 50 µM |
| Cc1cc(C)n2c(SCC(=O)N3CCN(S(=O)(=O)c4ccc(Cl)cc4)CC3)nnc2n1 [1-[4-(4-chlorophenyl)sulfonyl-1-piperazinyl]-2-[(5,7-dimethyl-[1,2,4]triazolo[4,3-a]pyrimidin-3-yl)thio]ethanone] | 49.9 µM |
| [O-]/[N+](=C/c1ccc(F)cc1)c1ccccc1 [(E)-(4-fluorobenzylidene)(phenyl)azane oxide] | > 50 µM |
| Cc1ccc(/C=C/C2=Cc3c(sc(NC(=O)CSc4nnc(N)[nH]4)c3C#N)C(C)(C)C2)o1 [2-[(5-azanyl-1H-1,2,4-triazol-3-yl)sulfanyl]-N-[3-cyano-7,7-dimethyl-5-[(E)-2-(5-methylfuran-2-yl)ethenyl]-6H-1-benzothiophen-2-yl]ethanamide] | 19.8 µM |
| O=C1Nc2ccccc2SC(c2ccccc2)C1O (configuration not stated) [3-hydroxy-2-phenyl-2,3-dihydro-1,5-benzothiazepin-4(5H)-one] | 35.5 µM |
| CCOc1cc(/C=C(/C#N)c2ccc(F)cc2)ccc1OCc1ccc(C(=O)O)o1 [5-[[4-[(E)-2-cyano-2-(4-fluorophenyl)ethenyl]-2-ethoxyphenoxy]methyl]furan-2-carboxylic acid] | 41.8 µM |
| [O-]/[N+](=C\c1ccncc1)c1ccccc1 | 46.6 µM |
| CCn1nc(-c2cccs2)nc2c(=O)n(C)c(=O)nc1-2 [1-ethyl-6-methyl-3-thiophen-2-yl-pyrimido[5,4-e][1,2,4]triazine-5,7-dione] | > 50 µM |
| N#Cc1c(N2CCCC2)nc(N)c2c(N)nc(N3CCCC3)cc12 [SMR000061605] | > 50 µM |
| COc1cc(/C=C(/C#N)c2ccc(F)cc2)ccc1OCc1ccc(C(=O)O)o1 [5-({4-[2-cyano-2-(4-fluorophenyl)vinyl]-2-methoxyphenoxy}methyl)-2-furoic acid] | > 50 µM |
| CCn1nc(-c2ccccc2)nc2c(=O)n(C)c(=O)nc1-2 [1-Ethyl-6-methyl-3-phenyl-1H-pyrimido[5,4-e][1,2,4]triazine-5,7-dione] | > 50 µM |
| COc1ccc(Cn2c(C)nc3c(c2=O)c2nc4ccccc4nc2n3Cc2ccco2)cc1 [MLS000079944] | 22 µM |
| O=C1C=Cc2ccccc2C1=O [1,2-dihydronaphthalene-1,2-dione] | 22.5 µM |

| SMILES | IC50 |
| --- | --- |
| CCCCCC#CCC#CCC#CCC#CCCCC(=O)O | 13.1 µM |
| N#Cc1c(NC(=O)c2ccc(Br)o2)n(-c2ccccc2)c2nc3ccccc3nc12 [5-bromanyl-N-(3-cyano-1-phenyl-pyrrolo[3,2-b]quinoxalin-2-yl)furan-2-carboxamide] | > 50 µM |
| Cc1c(N=c2c(=O)c3ccccc3c2=O)c(=O)n(-c2ccccc2)n1C [MLS000105950] | > 50 µM |
| CC(=O)[C@@H]1[C@@H]2C(=O)N(c3ccc(F)c(Cl)c3)C(=O)[C@@H]2C2c3ccccc3C=CN21 (some centres not stated) [MLS000040594] | > 50 µM |
| COC(=O)c1ccccc1NC(=O)CN1C(=O)C2CCCN2c2ncc(Cl)cc21 (configuration not stated) [MLS000094302] | > 50 µM |
| O=C1c2ccccc2-c2onc3ccc(NCCCn4ccnc4)c1c23 [SMR000044769] | 35.2 µM |
| Cc1nc2cc(-c3cccc(F)c3)nn2c(C)c1CCC(=O)N1CCC2(CC1)OCCO2 [1-(1,4-dioxa-8-azaspiro[4.5]decan-8-yl)-3-[2-(3-fluorophenyl)-5,7-dimethyl-6-pyrazolo[1,5-a]pyrimidinyl]-1-propanone] | > 50 µM |
| O=C(OC1CCCCC1)c1ccc2c(c1)C1C=CCC1C(C(=O)O)N2 (configuration not stated) [SMR000019385] | 17.5 µM |
| Cc1ccc(C)n1-c1cccc(C(=O)O)c1 | 16.9 µM |
| Cn1ncnc2c(=O)n(C)c(=O)nc1-2 | > 50 µM |
| Nc1nc2c(s1)CCc1c-2cnn1-c1ccccc1 [MLS000085948] | > 50 µM |
| N#Cc1c(N)sc(=S)c2c1CCN(Cc1ccccc1)C2 [3-Amino-7-benzyl-1-thioxo-5,6,7,8-tetrahydro-1H-thiopyrano[3,4-c]pyridine-4-carbonitrile] | > 50 µM |
| O=C1C(=C2C(=O)c3ccccc3C2=O)Nc2ccccc21 [MLS000071738] | > 50 µM |
| CC1=C(/C=C/C(C)=C/C=C/C(C)=C/C(=O)O)C(C)(C)CCC1 [ALL-TRANS-RETINOIC ACID] | 48.6 µM |
| CCOc1ccc2noc3c2c1C(=O)c1ccccc1-3 [MLS000106837] | 30.2 µM |
| O=C(c1cccs1)c1no[n+]([O-])c1C(=O)c1cccs1 [(5-oxidanidyl-4-thiophen-2-ylcarbonyl-1,2,5-oxadiazol-5-ium-3-yl)-thiophen-2-yl-methanone] | 6.96 µM |
| O=C1C=C(NCc2ccc(Cl)c(Cl)c2)CC1 [3-[(3,4-dichlorobenzyl)amino]cyclopent-2-en-1-one] | > 50 µM |
| COc1ccc2noc3c2c1C(=O)c1ccccc1-3 [MLS000106874] | 14.3 µM |
| CCCSc1nnc(NC(=O)c2sc3nc(-c4cccs4)ccc3c2N)s1 [3-amino-N-(5-propylsulfanyl-1,3,4-thiadiazol-2-yl)-6-thiophen-2-ylthieno[2,3-b]pyridine-2-carboxamide] | 25.7 µM |
